pIC50: −log10 of the molar value. One block for each compound: values may come before it.
Target: T1, human GPR68 (Homo sapiens, UniProt Q15743)
T1 construct: encoding full-length human GPR68 (uniprot ID: Q15743); expressed in transfected cells; host or cells: HEK293T
Assay: GPR68 Biochemical Assay (Promega GloSensor cAMP assay, GPR68 antagonism)
Format: cell-based
Conditions: HEK293T cells transiently expressing hGPR68, antagonism of pH 5.5 stimulated cAMP, 15 min, read-out: hGPR68 IC50
How it was run: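 Readout is GloSensor cAMP luminescence after 15 min at room temperature, normalised between pH 5.5 stimulation and pH 8.0 minimum controls; IC50 fitted sigmoidally. Test compounds, up to 50 μM final (9-point half-log, 0.5% DMSO), were co-added with pH 5.5 buffer to HEK293T cells transiently expressing full-length human GPR68 plus GloSensor.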

T1 sequence (Q15743 whole entry): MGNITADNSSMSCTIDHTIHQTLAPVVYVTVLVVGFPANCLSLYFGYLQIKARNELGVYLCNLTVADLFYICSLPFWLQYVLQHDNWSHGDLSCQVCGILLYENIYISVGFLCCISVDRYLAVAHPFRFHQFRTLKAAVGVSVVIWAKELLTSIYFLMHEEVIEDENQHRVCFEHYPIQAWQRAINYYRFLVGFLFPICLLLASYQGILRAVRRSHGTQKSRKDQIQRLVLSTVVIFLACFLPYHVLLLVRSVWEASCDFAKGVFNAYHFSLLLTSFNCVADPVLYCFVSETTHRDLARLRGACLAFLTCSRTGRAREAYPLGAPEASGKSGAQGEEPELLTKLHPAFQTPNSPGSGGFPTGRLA

Compound: [2H]C([2H])([2H])OCc1nn2c(C(=O)NC3Cc4cccnc4C3)ccnc2c1C(N)=O (stereo not shown) [Compound 160, N7-(6,7-dihydro-5H-cyclopenta[b]pyridin-6-yl)-2-(trideuteriomethoxymethyl)pyrazolo[1,5-a]pyrimidine-3,7-dicarboxamide]
- pIC50: > 7.30

Compound: CNC(=O)c1c(COC)nn2c(C(=O)N[C@H]3C[C@@H](OC(F)(F)F)C3)ccnc12 [Compound 161, 2-(methoxymethyl)-N3-methyl-N7-[cis-3-(trifluoromethoxy)cyclobutyl]pyrazolo[1,5-a]pyrimidine-3,7-dicarboxamide]
- pIC50: 5.30 to 6.30

Compound: NC(=O)c1c(OCC2CC2)nn2c(C(=O)N[C@H]3C[C@@H](OC(F)(F)F)C3)ccnc12 [Compound 162, 2-(cyclopropylmethoxy)-N7-[cis-3-(trifluoromethoxy)cyclobutyl]pyrazolo[1,5-a]pyrimidine-3,7-dicarboxamide]
- pIC50: 6.30 to 7.30

Compound: COCc1nn2c(C(=O)NC3Cc4nccn4C3)ccnc2c1C(N)=O (stereo not shown) [Compound 165, N7-(6,7-dihydro-5H-pyrrolo[1,2-a]imidazol-6-yl)-2-(methoxymethyl)pyrazolo[1,5-a]pyrimidine-3,7-dicarboxamide]
- pIC50: 6.30 to 7.30

Compound: COCc1nn2c(C(=O)N[C@@H]3CCOc4cc(F)ccc43)ccnc2c1C(N)=O [Compound 166, N7-[(4R)-7-fluorochroman-4-yl]-2-(methoxymethyl)pyrazolo[1,5-a]pyrimidine-3,7-dicarboxamide]
- pIC50: > 7.30

Compound: COCc1nn2c(C(=O)N[C@@H]3COc4cc(F)ccc43)ccnc2c1C(N)=O [Compound 167, N7-[(3S)-6-fluoro-2,3-dihydrobenzofuran-3-yl]-2-(methoxymethyl)pyrazolo[1,5-a]pyrimidine-3,7-dicarboxamide]
- pIC50: > 7.30

Compound: COCc1nn2c(C(=O)N[C@H]3COc4c(Cl)cccc43)ccnc2c1C(N)=O [Compound 169, N7-[(3R)-7-chloro-2,3-dihydrobenzofuran-3-yl]-2-(methoxymethyl)pyrazolo[1,5-a]pyrimidine-3,7-dicarboxamide]
- pIC50: > 7.30

Compound: COCc1nn2c(C(=O)NC3Cc4ccncc4C3)ccnc2c1C(N)=O (stereo not shown) [Compound 170, N7-(6,7-dihydro-5H-cyclopenta[c]pyridin-6-yl)-2-(methoxymethyl)pyrazolo[1,5-a]pyrimidine-3,7-dicarboxamide]
- pIC50: > 7.30

Compound: COCc1nn2c(C(=O)N[C@H]3CCOc4ccccc43)ccnc2c1C(N)=O [Compound 172, N7-[(4S)-chroman-4-yl]-2-(methoxymethyl)pyrazolo[1,5-a]pyrimidine-3,7-dicarboxamide]
- pIC50: 6.30 to 7.30

Compound: COCc1nn2c(C(=O)NC3CCOc4cc(F)c(F)cc43)ccnc2c1C(N)=O (stereo not shown) [Compound 182, N7-(6,7-difluorochroman-4-yl)-2-(methoxymethyl)pyrazolo[1,5-a]pyrimidine-3,7-dicarboxamide]
- pIC50: > 7.30

Compound: COCc1nn2c(C(=O)N[C@H]3CCc4ccccc43)ccnc2c1C(N)=O [Compound 183, 2-(methoxymethyl)-N7-[(1S)-indan-1-yl]pyrazolo[1,5-a]pyrimidine-3,7-dicarboxamide]
- pIC50: > 7.30

Compound: COCc1nn2c(C(=O)NC3COc4ncccc43)ccnc2c1C(N)=O (stereo not shown) [Compound 184, N7-(2,3-dihydrofuro[2,3-b]pyridin-3-yl)-2-(methoxymethyl)pyrazolo[1,5-a]pyrimidine-3,7-dicarboxamide]
- pIC50: > 7.30

Compound: COCc1nn2c(C(=O)NC3COc4cc(F)cc(F)c4C3)ccnc2c1C(N)=O (stereo not shown) [Compound 185, N7-(5,7-difluorochroman-3-yl)-2-(methoxymethyl)pyrazolo[1,5-a]pyrimidine-3,7-dicarboxamide]
- pIC50: 6.30 to 7.30

Compound: COCc1nn2c(C(=O)NC3CCC(C)(C)c4ccccc43)ccnc2c1C(N)=O (stereo not shown) [Compound 186, N7-(4,4-dimethyltetralin-1-yl)-2-(methoxymethyl)pyrazolo[1,5-a]pyrimidine-3,7-dicarboxamide]
- pIC50: 5.30 to 6.30

Compound: COCc1nn2c(C(=O)NC3CCc4cncn4C3)ccnc2c1C(N)=O (stereo not shown) [Compound 188, 2-(methoxymethyl)-N7-(5,6,7,8-tetrahydroimidazo[1,5-a]pyridin-6-yl)pyrazolo[1,5-a]pyrimidine-3,7-dicarboxamide]
- pIC50: 5.30 to 6.30

Compound: COCc1nn2c(C(=O)NC3CCc4ncsc4C3)ccnc2c1C(N)=O (stereo not shown) [Compound 190, 2-(methoxymethyl)-N7-(4,5,6,7-tetrahydro-1,3-benzothiazol-6-yl)pyrazolo[1,5-a]pyrimidine-3,7-dicarboxamide]
- pIC50: 6.30 to 7.30

Compound: COCc1nn2c(C(=O)NC3COc4c(F)cc(F)cc43)ccnc2c1C(N)=O (stereo not shown) [Compound 191, N7-(5,7-difluoro-2,3-dihydrobenzofuran-3-yl)-2-(methoxymethyl)pyrazolo[1,5-a]pyrimidine-3,7-dicarboxamide]
- pIC50: > 7.30

Compound: COCc1nn2c(C(=O)NC3COc4c(F)cccc43)ccnc2c1C(N)=O (stereo not shown) [Compound 192, N7-(7-fluoro-2,3-dihydrobenzofuran-3-yl)-2-(methoxymethyl)pyrazolo[1,5-a]pyrimidine-3,7-dicarboxamide]
- pIC50: > 7.30

Compound: COCc1nn2c(C(=O)N[C@H]3CCCc4ccccc43)ccnc2c1C(N)=O [Compound 193, 2-(methoxymethyl)-N7-[(1S)-tetralin-1-yl]pyrazolo[1,5-a]pyrimidine-3,7-dicarboxamide]
- pIC50: > 7.30

Compound: COCc1nn2c(C(=O)NC3COc4ccc(F)cc4C3)ccnc2c1C(N)=O (stereo not shown) [Compound 196, N7-(6-fluorochroman-3-yl)-2-(methoxymethyl)pyrazolo[1,5-a]pyrimidine-3,7-dicarboxamide]
- pIC50: > 7.30

Compound: CCOCc1nn2c(C(=O)NC3Cc4ccccc4C3)ccnc2c1C(N)=O [Compound 202, 2-(ethoxymethyl)-N7-indan-2-yl-pyrazolo[1,5-a]pyrimidine-3,7-dicarboxamide]
- pIC50: > 7.30

Compound: CCOCc1nn2c(C(=O)N[C@H]3C[C@@H](OC(F)(F)F)C3)ccnc2c1C(N)=O [Compound 205, 2-(ethoxymethyl)-N7-[cis-3-(trifluoromethoxy)cyclobutyl]pyrazolo[1,5-a]pyrimidine-3,7-dicarboxamide]
- pIC50: 6.30 to 7.30

Results, then the compound that gave them:

- pIC50: > 7.30
Compound: NC(=O)c1c(C2CC2)nc2c(C(=O)NC3Cc4cccnc4C3)ccnn12 (stereo not shown) [Compound 163, 2-cyclopropyl-N8-(6,7-dihydro-5H-cyclopenta[b]pyridin-6-yl) imidazo[1,2-b]pyridazine-3,8-dicarboxamide]

- pIC50: > 7.30
Compound: COCc1nc2c(C(=O)NC3Cc4cc(F)cc(F)c4C3)ccnn2c1C(N)=O (stereo not shown) [Compound 164, N8-(4,6-difluoroindan-2-yl)-2-(methoxymethyl)imidazo[1,2-b]pyridazine-3,8-dicarboxamide]

- pIC50: > 7.30
Compound: COCc1nn2c(C(=O)NC3CS(=O)(=O)c4ccccc43)ccnc2c1C(N)=O (stereo not shown) [Compound 168, N7-(1,1-dioxo-2,3-dihydrobenzothiophen-3-yl)-2-(methoxymethyl)pyrazolo[1,5-a]pyrimidine-3,7-dicarboxamide]

- pIC50: 6.30 to 7.30
Compound: COCc1nn2c(C(=O)NC3CCOc4ncccc43)ccnc2c1C(N)=O (stereo not shown) [Compound 171, N7-(3,4-dihydro-2H-pyrano[2,3-b]pyridin-4-yl)-2-(methoxymethyl)pyrazolo[1,5-a]pyrimidine-3,7-dicarboxamide]

- pIC50: 5.30 to 6.30
Compound: COCc1nn2c(C(=O)NC3CCc4nccn4C3)ccnc2c1C(N)=O (stereo not shown) [Compound 187, 2-(methoxymethyl)-N7-(5,6,7,8-tetrahydroimidazo[1,2-a]pyridin-6-yl)pyrazolo[1,5-a]pyrimidine-3,7-dicarboxamide]

- pIC50: > 7.30
Compound: COCc1nn2c(C(=O)NC3CCS(=O)(=O)c4ccccc43)ccnc2c1C(N)=O (stereo not shown) [Compound 189, N7-(1,1-dioxo-3,4-dihydro-2H-thiochromen-4-yl)-2-(methoxymethyl)pyrazolo[1,5-a]pyrimidine-3,7-dicarboxamide]

- pIC50: > 7.30
Compound: COCc1nn2c(C(=O)NC3Cc4ccc(F)cc4C3)ccnc2c1C(N)=O (stereo not shown) [Compound 194, N7-(5-fluoroindan-2-yl)-2-(methoxymethyl)pyrazolo[1,5-a]pyrimidine-3,7-dicarboxamide]

- pIC50: > 7.30
Compound: COCc1nn2c(C(=O)NC3Cc4cc(F)c(F)cc4C3)ccnc2c1C(N)=O [Compound 195, N7-(5,6-difluoroindan-2-yl)-2-(methoxymethyl)pyrazolo[1,5-a]pyrimidine-3,7-dicarboxamide]

- pIC50: 5.30 to 6.30
Compound: COCc1nn2c(C(=O)NCc3ccc(O)cc3)ccnc2c1C(N)=O [Compound 197, N7-[(4-hydroxyphenyl)methyl]-2-(methoxymethyl)pyrazolo[1,5-a]pyrimidine-3,7-dicarboxamide]

- pIC50: 6.30 to 7.30
Compound: COCc1nn2c(C(=O)N[C@H]3CC(C)(C)c4ccccc43)ccnc2c1C(N)=O [Compound 198, 2-(methoxymethyl)-N7-[(1S)-3,3-dimethylindan-1-yl]pyrazolo[1,5-a]pyrimidine-3,7-dicarboxamide]

- pIC50: 6.30 to 7.30
Compound: COCc1nn2c(C(=O)NCc3ccccc3OC)ccnc2c1C(N)=O [Compound 199, 2-(methoxymethyl)-N7-[(2-methoxyphenyl)methyl]pyrazolo[1,5-a]pyrimidine-3,7-dicarboxamide]

- pIC50: > 7.30
Compound: COCc1nn2c(C(=O)N[C@@H]3Cc4ccccc4[C@@H]3C)ccnc2c1C(N)=O [Compound 201]

- pIC50: 6.30 to 7.30
Compound: NC(=O)c1c(C2CCCO2)nn2c(C(=O)N[C@H]3C[C@@H](OC(F)(F)F)C3)ccnc12 (stereo partly drawn) [Compound 203, 2-tetrahydrofuran-2-yl-N7-[cis-3-(trifluoromethoxy)cyclobutyl]pyrazolo[1,5-a]pyrimidine-3,7-dicarboxamide]

- pIC50: 6.30 to 7.30
Compound: NC(=O)c1c(CO)nn2c(C(=O)NC3Cc4ccccc4C3)ccnc12 [Compound 204, 2-(hydroxymethyl)-N7-indan-2-yl-pyrazolo[1,5-a]pyrimidine-3,7-dicarboxamide]

- pIC50: 6.30 to 7.30
Compound: COCc1nn2c(C(=O)N[C@H]3C[C@@H](OC(F)(F)F)C3)cc(C)nc2c1C(N)=O [Compound 206, 2-(methoxymethyl)-5-methyl-N7-[cis-3-(trifluoromethoxy)cyclobutyl]pyrazolo[1,5-a]pyrimidine-3,7-dicarboxamide]
